In PubChem BioAssay AID2060902 (Molecular Pharmacology Branch, DTP, NCI, 2025):

System: 485368-065-R3-J5-PDC spheroids with HUVEC/MSC, viability
Assay: Anticancer human tumor 485368-065-R3-J5-PDC patient-derived pancreatic carcinoma cell line growth inhibition [RAS]
Conditions: for IC50: curve of first compound; for viability, T/C: stronger effect = lower value
Outline: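 Tumour cells grown as complex spheroids with HUVEC endothelial cells and mesenchymal stem cells, treated with RAS pathway inhibitor combinations. Each agent spans half-log steps from near clinical Cmax, or 10 microM where Cmax is unknown.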

[1] = second compound 0.000949 µM, first compound 0.0316 µM
[2] = second compound 0.000949 µM, first compound 0.1 µM
[3] = second compound 0.000949 µM, first compound 0.316 µM
[4] = second compound 0.000949 µM, first compound 1 µM
[5] = second compound 0.000949 µM, first compound 3.16 µM
[6] = second compound 0.000949 µM, first compound 10 µM
[7] = second compound 0.003 µM, first compound 0.0316 µM
[8] = second compound 0.003 µM, first compound 0.1 µM
[9] = second compound 0.003 µM, first compound 0.316 µM
[10] = second compound 0.003 µM, first compound 1 µM
[11] = second compound 0.003 µM, first compound 3.16 µM
[12] = second compound 0.003 µM, first compound 10 µM
[13] = second compound 0.00949 µM, first compound 0.0316 µM
[14] = second compound 0.00949 µM, first compound 0.1 µM
[15] = second compound 0.00949 µM, first compound 0.316 µM
[16] = second compound 0.00949 µM, first compound 1 µM
[17] = second compound 0.00949 µM, first compound 3.16 µM
[18] = second compound 0.00949 µM, first compound 10 µM
[19] = second compound 0.03 µM, first compound 0.0316 µM
[20] = second compound 0.03 µM, first compound 0.1 µM
[21] = second compound 0.03 µM, first compound 0.316 µM
[22] = second compound 0.03 µM, first compound 1 µM
[23] = second compound 0.03 µM, first compound 3.16 µM
[24] = second compound 0.03 µM, first compound 10 µM
[25] = second compound 0.0949 µM, first compound 0.0316 µM
[26] = second compound 0.0949 µM, first compound 0.1 µM
[27] = second compound 0.0949 µM, first compound 0.316 µM
[28] = second compound 0.0949 µM, first compound 1 µM
[29] = second compound 0.0949 µM, first compound 3.16 µM
[30] = second compound 0.0949 µM, first compound 10 µM
[31] = second compound 0.3 µM, first compound 0.0316 µM
[32] = second compound 0.3 µM, first compound 0.1 µM
[33] = second compound 0.3 µM, first compound 0.316 µM
[34] = second compound 0.3 µM, first compound 1 µM
[35] = second compound 0.3 µM, first compound 3.16 µM
[36] = second compound 0.3 µM, first compound 10 µM
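Note: spheroids exposed to agents for seven days before readout.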

SMILES: CC1(C)CCC(Nc2ncc(C(F)(F)F)c(-c3c[nH]c4c(P(C)(C)=O)c(C#N)ccc34)n2)CN1 (stereo not drawn) + C#Cc1c(F)ccc2cc(O)cc(-c3ncc4c(N5CC6CCC(C5)N6)nc(OCC56CCCN5CC(F)C6)nc4c3F)c12
- IC50 (second compound 0.0316 µM): 3.18 nM
- IC50 (second compound 0.1 µM): 3.83 nM
- IC50 (second compound 0.316 µM): 4.39 nM
- IC50 (second compound 1 µM): 4.77 nM
- IC50 (second compound 3.16 µM): 4.85 nM
- IC50 (second compound 10 µM): < 0.949 nM
- viability, T/C (second compound 0.0316 µM, first compound 0.000949 µM): 89.8%
- viability, T/C (second compound 0.0316 µM, first compound 0.003 µM): 51.1%
- viability, T/C (second compound 0.0316 µM, first compound 0.00949 µM): 33.6%
- viability, T/C (second compound 0.0316 µM, first compound 0.03 µM): 31%
- viability, T/C (second compound 0.0316 µM, first compound 0.0949 µM): 27.3%
- viability, T/C (second compound 0.0316 µM, first compound 0.3 µM): 30.2%
- viability, T/C (second compound 0.1 µM, first compound 0.000949 µM): 92.7%
- viability, T/C (second compound 0.1 µM, first compound 0.003 µM): 53.2%
- viability, T/C (second compound 0.1 µM, first compound 0.00949 µM): 38.5%
- viability, T/C (second compound 0.1 µM, first compound 0.03 µM): 29.4%
- viability, T/C (second compound 0.1 µM, first compound 0.0949 µM): 27.7%
- viability, T/C (second compound 0.1 µM, first compound 0.3 µM): 33.6%
- viability, T/C (second compound 0.316 µM, first compound 0.000949 µM): 91.5%
- viability, T/C (second compound 0.316 µM, first compound 0.003 µM): 56.4%
- viability, T/C (second compound 0.316 µM, first compound 0.00949 µM): 36.4%
- viability, T/C (second compound 0.316 µM, first compound 0.03 µM): 33.6%
- viability, T/C (second compound 0.316 µM, first compound 0.0949 µM): 30.1%
- viability, T/C (second compound 0.316 µM, first compound 0.3 µM): 28.8%
- viability, T/C (second compound 1 µM, first compound 0.000949 µM): 85.2%
- viability, T/C (second compound 1 µM, first compound 0.003 µM): 55.8%
- viability, T/C (second compound 1 µM, first compound 0.00949 µM): 40.7%
- viability, T/C (second compound 1 µM, first compound 0.03 µM): 36%
- viability, T/C (second compound 1 µM, first compound 0.0949 µM): 30.8%
- viability, T/C (second compound 1 µM, first compound 0.3 µM): 31.1%
- viability, T/C (second compound 3.16 µM, first compound 0.000949 µM): 72.3%
- viability, T/C (second compound 3.16 µM, first compound 0.003 µM): 56.3%
- viability, T/C (second compound 3.16 µM, first compound 0.00949 µM): 41.2%
- viability, T/C (second compound 3.16 µM, first compound 0.03 µM): 36.5%
- viability, T/C (second compound 3.16 µM, first compound 0.0949 µM): 36.9%
- viability, T/C (second compound 3.16 µM, first compound 0.3 µM): 35.6%
- viability, T/C (second compound 10 µM, first compound 0.000949 µM): 41.6%
- viability, T/C (second compound 10 µM, first compound 0.003 µM): 38.1%
- viability, T/C (second compound 10 µM, first compound 0.00949 µM): 31.4%
- viability, T/C (second compound 10 µM, first compound 0.03 µM): 35.4%
- viability, T/C (second compound 10 µM, first compound 0.0949 µM): 30.4%
- viability, T/C (second compound 10 µM, first compound 0.3 µM): 27.8%

SMILES: NC1c2ccccc2OC12CCN(c1cnc3c(N4CCCc5ncccc54)n[nH]c3n1)CC2 (stereo not drawn) + CCn1c(-c2cccnc2C(C)OC)c2c3cc(ccc31)N1CCOC(CC(NC(=O)C(C(C)C)N(C)C(=O)C3(F)CCN(C(=O)C#CC(C)(C)N(C)C)CC3)C(=O)N3CCCC(N3)C(=O)OCC(C)(C)C2)C1
- IC50 (second compound 0.000949 µM): > 10000 nM
- IC50 (second compound 0.003 µM): > 10000 nM
- IC50 (second compound 0.00949 µM): > 10000 nM
- IC50 (second compound 0.03 µM): > 10000 nM
- IC50 (second compound 0.0949 µM): > 10000 nM
- IC50 (second compound 0.3 µM): > 10000 nM
- viability, T/C [1]: 84.7%
- viability, T/C [2]: 84.3%
- viability, T/C [3]: 81.9%
- viability, T/C [4]: 91.1%
- viability, T/C [5]: 86.6%
- viability, T/C [6]: 81.9%
- viability, T/C [7]: 85.7%
- viability, T/C [8]: 90.1%
- viability, T/C [9]: 82.8%
- viability, T/C [10]: 80.5%
- viability, T/C [11]: 92.8%
- viability, T/C [12]: 87.9%
- viability, T/C [13]: 89.7%
- viability, T/C [14]: 90.3%
- viability, T/C [15]: 82.6%
- viability, T/C [16]: 78.6%
- viability, T/C [17]: 88.9%
- viability, T/C [18]: 84.9%
- viability, T/C [19]: 98.7%
- viability, T/C [20]: 93%
- viability, T/C [21]: 82.7%
- viability, T/C [22]: 79.2%
- viability, T/C [23]: 83.6%
- viability, T/C [24]: 81.4%
- viability, T/C [25]: 82.3%
- viability, T/C [26]: 86.8%
- viability, T/C [27]: 81.1%
- viability, T/C [28]: 77%
- viability, T/C [29]: 87.7%
- viability, T/C [30]: 76.5%
- viability, T/C [31]: 78.3%
- viability, T/C [32]: 86.1%
- viability, T/C [33]: 75.3%
- viability, T/C [34]: 81.1%
- viability, T/C [35]: 98.2%
- viability, T/C [36]: 69.7%

SMILES: CC1(O)CCCC1n1c(=O)c(C(F)F)cc2cnc(NC3CCN(S(C)(=O)=O)CC3)nc21 (stereo not drawn) + CCn1c(-c2cccnc2C(C)OC)c2c3cc(ccc31)N1CCOC(CC(NC(=O)C(C(C)C)N(C)C(=O)C3(F)CCN(C(=O)C#CC(C)(C)N(C)C)CC3)C(=O)N3CCCC(N3)C(=O)OCC(C)(C)C2)C1
- IC50 (second compound 0.000949 µM): 279 nM
- IC50 (second compound 0.003 µM): 722 nM
- IC50 (second compound 0.00949 µM): 580 nM
- IC50 (second compound 0.03 µM): 254 nM
- IC50 (second compound 0.0949 µM): 636 nM
- IC50 (second compound 0.3 µM): 656 nM
- viability, T/C [1]: 106%
- viability, T/C [2]: 79.2%
- viability, T/C [3]: 44.9%
- viability, T/C [4]: 40.2%
- viability, T/C [5]: 46%
- viability, T/C [6]: 24.5%
- viability, T/C [7]: 91.4%
- viability, T/C [8]: 82.9%
- viability, T/C [9]: 50.4%
- viability, T/C [10]: 41.9%
- viability, T/C [11]: 48.5%
- viability, T/C [12]: 21.3%
- viability, T/C [13]: 92.8%
- viability, T/C [14]: 77.1%
- viability, T/C [15]: 42.9%
- viability, T/C [16]: 48.2%
- viability, T/C [17]: 44.8%
- viability, T/C [18]: 18%
- viability, T/C [19]: 97.6%
- viability, T/C [20]: 88.6%
- viability, T/C [21]: 40.8%
- viability, T/C [22]: 41.2%
- viability, T/C [23]: 49.2%
- viability, T/C [24]: 17.4%
- viability, T/C [25]: 96%
- viability, T/C [26]: 80%
- viability, T/C [27]: 48.5%
- viability, T/C [28]: 41.2%
- viability, T/C [29]: 49.8%
- viability, T/C [30]: 17.4%
- viability, T/C [31]: 105%
- viability, T/C [32]: 86.1%
- viability, T/C [33]: 47%
- viability, T/C [34]: 44.8%
- viability, T/C [35]: 48.5%
- viability, T/C [36]: 13.1%

SMILES: CC(Nc1ccc2c(c1)OCCn1cc(N3C(=O)OCC3C(F)F)nc1-2)C(N)=O (stereo not drawn) + CCn1c(-c2cccnc2C(C)OC)c2c3cc(ccc31)N1CCOC(CC(NC(=O)C(C(C)C)N(C)C(=O)C3(F)CCN(C(=O)C#CC(C)(C)N(C)C)CC3)C(=O)N3CCCC(N3)C(=O)OCC(C)(C)C2)C1
- IC50 (second compound 0.000949 µM): > 10000 nM
- IC50 (second compound 0.003 µM): > 10000 nM
- IC50 (second compound 0.00949 µM): > 10000 nM
- IC50 (second compound 0.03 µM): > 10000 nM
- IC50 (second compound 0.0949 µM): > 10000 nM
- IC50 (second compound 0.3 µM): > 10000 nM
- viability, T/C [1]: 106%
- viability, T/C [2]: 93.9%
- viability, T/C [3]: 94.2%
- viability, T/C [4]: 72.2%
- viability, T/C [5]: 70.4%
- viability, T/C [6]: 65.8%
- viability, T/C [7]: 90.8%
- viability, T/C [8]: 93%
- viability, T/C [9]: 93.7%
- viability, T/C [10]: 86.2%
- viability, T/C [11]: 98.9%
- viability, T/C [12]: 56.8%
- viability, T/C [13]: 94.4%
- viability, T/C [14]: 101%
- viability, T/C [15]: 84.9%
- viability, T/C [16]: 96%
- viability, T/C [17]: 85.9%
- viability, T/C [18]: 55.7%
- viability, T/C [19]: 96.6%
- viability, T/C [20]: 91%
- viability, T/C [21]: 99%
- viability, T/C [22]: 82.5%
- viability, T/C [23]: 95.5%
- viability, T/C [24]: 65%
- viability, T/C [25]: 103%
- viability, T/C [26]: 94.1%
- viability, T/C [27]: 78.6%
- viability, T/C [28]: 93.7%
- viability, T/C [29]: 77.9%
- viability, T/C [30]: 62.1%
- viability, T/C [31]: 100%
- viability, T/C [32]: 101%
- viability, T/C [33]: 86.6%
- viability, T/C [34]: 83.7%
- viability, T/C [35]: 84%
- viability, T/C [36]: 71.8%
